Here are results for one compound from patent US20020198219A1, “2-pyridinamine compositions and related methods” (priority 2000, published 2002).

Series [1] relates to differentiated P19 neurons. Nature of the series: Differentiated P19 excitotoxicity assay (glutamate/glycine-induced death, Alamar Blue). It is filed as cell-based, murine. The conditions noted are these: Mus musculus, Neuron, 3 mM glutamate + 1 mM glycine. The method, then: Alamar Blue fluorescence, an indicator of cell viability, was used to determine cell viability after an NMDA-induced cytotoxic insult. […] However, since raw fluorescence counts vary from experiment to experiment, FIGS. 2A, 2B, and 2C are expressed as a percent of control.
(§1) Glutamate toxicity dose response in the presence of a constant 1 mM glycine concentration was measured in the differentiated P19 neurons. The curve generated through the data points is the average of 6 separate dose response curves. Data points are represented as the percent of control cells ±standard error. % control=(([Glutamate]exp−[Glutamate]max)/(Controlvehicle−[Glutamate]max))×100.
Data points are the average ±standard error of three separate experiments.
These cells were used to measure the effects of various known kinase inhibitors (Compound Identification (ID) column in Table I) upon cytotoxicity-induced by NMDA. First, P19 cells were differentiated as described in Example 2. Then cells were exposed to 3 mM of glutamate in the presence of 1 mM glycine.
Cell viability was determined. Compounds that prevented excitotoxicity were determined by measuring the percentage of viable cells compared to differentiated P19 cells that were not presented with a toxic insult (Table I).
Cell viability was measured using two methods. The first method was a confocal, single-cell fluorescence imaging-based method using the live cell dye carboxy-fluorescein diacetate (CFDA). CFDA labels the cell bodies and processes of living cells. […] CFDA fluorescence was measured using a modified Attofluor Imager device (Atto Instruments, Rockville Pike, Md.). Cells were labeled with 1 uM CFDA for 15 min in media, then placed onto the stage of the Attofluor microscope. The dye was excited by light from a mercury lamp source passed through a 488 nm bandpass filter of 10 nm band width, passed through a CARV real-time confocal spinning disk module (Atto Instruments, Rockville, Md.), and then passed through a 40× oil immersion objective (Zeiss Fluar, NA=1.3). Emitted light was transmitted through a 495 nm dichroic mirror, collected to an Attofluor intensified CCD camera, and images were visualized using Attofluor RatioVision software (Atto Instruments, Rockville, Md.).
The second method for measuring cell viability was a plate reader method. Cells plated into black 96 well plates (Packard viewplates) are loaded with 5% Alamar Blue dye (Biosource International). Alamar Blue is a dye that takes advantage of mitochondrial reductases to convert non-fluorescent resazurin to fluorescent resorufin (excitation 535 nm, emission 580 nm). Baseline fluorescence counts were read at room temperature in a Wallac plate reader immediately after addition of Alamar blue. Fluorescence counts of cell viability were taken the same way after 1 hour incubation at 37° C. Fluorescence was expressed as a percent of control, untreated cells after subtraction of background fluorescence. Live/dead cells were confirmed visually with a light microscope. […]
(In general: Resazurin is reduced to fluorescent resorufin, in cell work by metabolically active cells.)

Series [2] has as its system P19 neurons. The method, then:
as §1

For series [3], the target named is T1, CDK1 (Homo sapiens, UniProt P06493).
T1 construct: host or cells: insect cells
Nature of the series: Kinase assay (33P Flashplate), CDK1. It is filed as biochemical. The note with it: mean of at least two curves. On the procedure: (§2) The general procedure used to assay for kinase activity was as follows: a kinase reaction mix was prepared in 50 mM Tris-HCl pH=8, 10 mM MgCl2, 0.1 mM Na3VO4, 1 mM DTT, 10 μM ATP, 0.25-1 μM biotinylated peptide substrate, 0.2-0.8 [Curies per well ^33P-γ-ATP [2000-3000 Ci/mmol]. Assay conditions varied slightly for each protein kinase, for example, insulin receptor kinase requires 10 mM MnCl2 for activity and calmodulin-dependent protein kinase requires calmodulin and 10 mM CaCl2. Reaction mix was dispensed into the wells of a streptavidin-coated Flashplate and 1 μl drug stock in 100% DMSO was added to a 100 μL reaction volume resulting in a final concentration of 1% DMSO in the reaction. Enzyme was diluted in 50 mM Tris-HCl pH=8.0, 0.1% BSA and added to each well. […] Test compounds were assayed in duplicate at 8 concentrations ranging from 100 μM to 10 μM in one order of magnitude steps. […] The IC50 was calculated from the dose response curve of the percent inhibition of the maximum signal in the assay according to the formula [max signal−background/test compound signal−background×(100)]=% inhibition by graphing the percent inhibition against the log concentration of test compound.
(§3) Casein Kinase 1 is a truncation at amino acid 318 of the C-terminal portion of the rat CK1 delta isoform produced in E. coli.

Series [4] deals with EGF-R (Homo sapiens, UniProt P00533). Nature of the series: biochemical. On the procedure:
(§4) Assay conditions varied slightly for each protein kinase, for example, insulin receptor kinase requires 10 mM MnCl2 for activity and calmodulin-dependent protein kinase requires calmodulin and 10 mM CaCl2. Reaction mix was dispensed into the wells of a streptavidin-coated Flashplate and 1 μl drug stock in 100% DMSO was added to a 100 μL reaction volume resulting in a final concentration of 1% DMSO in the reaction. Enzyme was diluted in 50 mM Tris-HCl pH=8.0, 0.1% BSA and added to each well. The reaction was incubated for one hour at 30° C. in the presence of compound. After one hour the reaction mix was aspirated from the plate and the plate was washed with PBS containing 100 mM EDTA. The plate was read on a scintillation counter to determine ^33P-γ-ATP incorporated into the immobilized peptide. Test compounds were assayed in duplicate at 8 concentrations ranging from 100 μM to 10 μM in one order of magnitude steps. A maximum and minimum signal for the assay was determined on each plate. The IC50 was calculated from the dose response curve of the percent inhibition of the maximum signal in the assay according to the formula [max signal−background/test compound signal−background×(100)]=% inhibition by graphing the percent inhibition against the log concentration of test compound. Known inhibitor compounds appropriate for the kinase being assayed were also included on each plate. […]

In series [5] the target is T2, PK A (Bos taurus, UniProt P00517).
T2 construct: Protein Kinase A is the catalytic subunit of cAMP-dependent protein kinase-A purified from bovine heart; from tissue; host or cells: bovine heart
As to the kind of experiment: Kinase assay (33P Flashplate), Protein Kinase A. It is filed as biochemical, bovine. The method, then:
as §4

The target of series [6] is T3, PKC-γ (Homo sapiens, UniProt P05129).
T3 construct: host or cells: insect cells
Nature of the series: Kinase assay (33P Flashplate), PKC-γ. It is filed as biochemical. The conditions noted are these: mean of at least two curves. The method, then:
as §2, §3

The target of series [7] is T4, Casein Kinase 1 (Rattus norvegicus, UniProt Q06486).
T4 construct: a truncation at amino acid 318 of the C-terminal portion of the rat CK1 delta isoform; host or cells: E. coli
T4 sequence (Q06486 1-317): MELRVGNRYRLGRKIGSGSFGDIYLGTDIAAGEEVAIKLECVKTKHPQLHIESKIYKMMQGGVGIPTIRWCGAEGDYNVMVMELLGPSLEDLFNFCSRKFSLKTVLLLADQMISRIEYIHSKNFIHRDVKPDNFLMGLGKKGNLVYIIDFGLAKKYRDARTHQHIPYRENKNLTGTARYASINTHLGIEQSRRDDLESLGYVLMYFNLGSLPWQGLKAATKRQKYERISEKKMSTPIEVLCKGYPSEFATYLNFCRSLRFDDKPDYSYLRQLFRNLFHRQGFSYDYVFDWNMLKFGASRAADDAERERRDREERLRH
Nature of the series: Kinase assay (33P Flashplate), Casein Kinase 1. It is filed as biochemical. The note with it: mean of at least two curves. The method, then: as §2, §3

For series [8], the target named is T5, Casein Kinase 2 (Homo sapiens, UniProt P68400).
T5 construct: host or cells: E. coli
As to the kind of experiment: Kinase assay (33P Flashplate), Casein Kinase 2. It is filed as biochemical. The conditions noted are these: mean of at least two curves. On the procedure: as §2, §3

The target in series [9] is T6, Calmodulin Kinase (Rattus norvegicus, UniProt P11275).
T6 construct: host or cells: insect cells
As to the kind of experiment: Kinase assay (33P Flashplate), Calmodulin Kinase. It is filed as biochemical. The note with it: mean of at least two curves. The method, then:
as §2, §3

A value given as a limit tells only on which side of the number the result lay.

T6 sequence (P11275 1-325): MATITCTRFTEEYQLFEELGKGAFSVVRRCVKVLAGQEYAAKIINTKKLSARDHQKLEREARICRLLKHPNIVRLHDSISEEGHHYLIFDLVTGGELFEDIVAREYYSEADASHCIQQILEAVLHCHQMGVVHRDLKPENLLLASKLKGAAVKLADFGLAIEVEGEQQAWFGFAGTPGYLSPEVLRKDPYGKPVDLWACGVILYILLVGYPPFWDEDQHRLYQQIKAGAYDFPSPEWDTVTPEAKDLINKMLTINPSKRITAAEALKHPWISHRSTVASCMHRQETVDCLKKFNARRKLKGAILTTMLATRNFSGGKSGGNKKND
Sequence of EGF-R (P00533 25-1210): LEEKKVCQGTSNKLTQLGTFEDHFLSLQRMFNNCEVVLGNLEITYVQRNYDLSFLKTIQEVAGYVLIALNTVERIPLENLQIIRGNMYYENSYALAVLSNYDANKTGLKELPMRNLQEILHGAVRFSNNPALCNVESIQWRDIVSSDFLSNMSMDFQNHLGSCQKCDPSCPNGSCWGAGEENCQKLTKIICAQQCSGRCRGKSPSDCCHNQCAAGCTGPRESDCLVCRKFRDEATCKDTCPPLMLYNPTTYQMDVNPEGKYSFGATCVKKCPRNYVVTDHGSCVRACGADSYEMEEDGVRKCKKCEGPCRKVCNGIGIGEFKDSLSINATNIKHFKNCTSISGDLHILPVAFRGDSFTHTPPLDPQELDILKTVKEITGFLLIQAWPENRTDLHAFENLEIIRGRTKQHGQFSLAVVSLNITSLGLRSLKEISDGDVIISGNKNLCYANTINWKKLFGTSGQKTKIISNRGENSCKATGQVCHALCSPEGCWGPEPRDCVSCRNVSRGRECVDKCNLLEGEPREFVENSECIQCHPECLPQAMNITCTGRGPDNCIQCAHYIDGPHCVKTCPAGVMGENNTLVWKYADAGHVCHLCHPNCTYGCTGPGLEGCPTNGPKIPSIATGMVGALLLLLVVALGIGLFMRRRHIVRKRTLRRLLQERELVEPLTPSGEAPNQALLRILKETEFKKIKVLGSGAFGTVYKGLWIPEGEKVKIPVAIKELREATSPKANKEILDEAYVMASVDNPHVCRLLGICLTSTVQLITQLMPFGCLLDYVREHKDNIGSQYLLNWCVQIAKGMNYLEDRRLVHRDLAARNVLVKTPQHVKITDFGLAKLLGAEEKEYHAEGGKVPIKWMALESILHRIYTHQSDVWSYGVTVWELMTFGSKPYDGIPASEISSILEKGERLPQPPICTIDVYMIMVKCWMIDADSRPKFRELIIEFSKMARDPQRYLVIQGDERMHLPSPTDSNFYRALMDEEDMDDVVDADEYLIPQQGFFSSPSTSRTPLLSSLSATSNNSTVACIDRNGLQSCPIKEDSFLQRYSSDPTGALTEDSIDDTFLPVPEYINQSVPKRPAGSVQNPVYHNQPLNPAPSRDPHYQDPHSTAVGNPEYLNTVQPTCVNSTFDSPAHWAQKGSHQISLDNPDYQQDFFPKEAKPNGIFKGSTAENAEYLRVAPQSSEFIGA
T5 sequence (P68400 whole entry): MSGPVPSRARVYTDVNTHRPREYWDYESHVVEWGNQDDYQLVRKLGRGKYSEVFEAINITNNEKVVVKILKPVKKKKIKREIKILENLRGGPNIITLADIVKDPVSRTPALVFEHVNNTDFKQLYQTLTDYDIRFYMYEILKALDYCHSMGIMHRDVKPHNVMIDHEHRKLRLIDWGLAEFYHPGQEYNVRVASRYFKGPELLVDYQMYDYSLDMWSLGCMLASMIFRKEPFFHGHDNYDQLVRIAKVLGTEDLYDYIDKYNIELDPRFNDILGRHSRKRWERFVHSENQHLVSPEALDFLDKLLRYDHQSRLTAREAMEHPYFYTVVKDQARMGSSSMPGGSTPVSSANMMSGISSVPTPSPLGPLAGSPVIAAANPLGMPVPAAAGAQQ
T5 sequence (P67870 whole entry partner): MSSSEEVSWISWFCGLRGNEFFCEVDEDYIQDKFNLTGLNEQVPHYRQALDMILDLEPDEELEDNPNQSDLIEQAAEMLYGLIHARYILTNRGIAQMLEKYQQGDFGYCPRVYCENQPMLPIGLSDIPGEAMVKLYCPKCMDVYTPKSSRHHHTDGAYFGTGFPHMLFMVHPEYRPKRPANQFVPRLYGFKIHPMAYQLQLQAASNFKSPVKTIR
T1 sequence (P06493 whole entry): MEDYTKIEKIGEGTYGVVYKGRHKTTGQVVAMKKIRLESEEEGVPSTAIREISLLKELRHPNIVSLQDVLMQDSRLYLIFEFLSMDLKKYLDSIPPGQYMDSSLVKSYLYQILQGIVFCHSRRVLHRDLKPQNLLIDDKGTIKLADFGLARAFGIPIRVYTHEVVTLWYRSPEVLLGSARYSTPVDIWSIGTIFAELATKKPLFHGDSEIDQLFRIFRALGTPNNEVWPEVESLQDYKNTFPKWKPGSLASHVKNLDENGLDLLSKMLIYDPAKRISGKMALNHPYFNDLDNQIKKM
T1 sequence (P14635 whole entry partner): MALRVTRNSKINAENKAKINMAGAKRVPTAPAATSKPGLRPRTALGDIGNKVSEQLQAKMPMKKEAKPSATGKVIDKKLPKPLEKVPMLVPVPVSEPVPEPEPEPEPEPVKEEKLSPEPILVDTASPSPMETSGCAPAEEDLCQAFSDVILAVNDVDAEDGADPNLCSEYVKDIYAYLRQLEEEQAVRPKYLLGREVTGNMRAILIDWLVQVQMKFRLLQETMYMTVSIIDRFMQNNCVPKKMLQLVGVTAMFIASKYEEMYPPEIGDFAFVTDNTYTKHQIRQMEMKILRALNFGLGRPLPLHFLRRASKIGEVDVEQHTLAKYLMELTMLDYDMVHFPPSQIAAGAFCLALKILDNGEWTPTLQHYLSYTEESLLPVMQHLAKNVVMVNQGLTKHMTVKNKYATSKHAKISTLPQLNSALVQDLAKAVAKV

For the compound `N#CC(=C(/N)Sc1ccccc1N)/C(C#N)=C(/N)Sc1ccccc1N` [U0126, bis[amino[(2-aminophenyl)thio]methylene] Butanedinitrile], the IC50 (in general, the concentration that inhibits the measured activity by half) was 1.1 µM in [1] (mean of three separate curves, read-out: IC50 for Neuroprotection [lower-upper 95% C.I.]); over 100 µM in series [3]; over 100 µM in [4]; over 100 µM in [5]; 29.5 µM in series [6]; over 100 µM in series [7]. The IC50 in [8] and in series [9] was over 100 µM in each case. The Emax in series [1] (read-out: Maximal Efficacy for Neuroprotection) was over 80%. Besides, the “effect on basal P19 neuron viability” value in series [2] is “did not affect the basal viability”.
